{"source": "patent US11091429B2", "about": "“Organic compounds” (Givaudan SA, priority 2012, dated 2021)", "key": {"Test in 3 in 1 coffee": {"test": "Test in 3 in 1 coffee", "conditions": "1 ppm, 3-in-1 coffee beverage, sucrose 13.2%, creamer (2.1% fat)", "experimental": "In a 3 in 1 Coffee beverage from Nestle (market product) sweetened with sucrose 13.2% and containing creamer (2.1% fat) C18:2-gaba was added.\nSamples were evaluated by expert tasters. Tasters were asked to describe the samples focusing on authentic taste, mouthfeel, fullness, salivation, sweetness, juiciness, richness, long lastingness and fattiness.\nBase is 3-in-1 Coffee beverage (market product) sweetened with sucrose and containing creamer with fat"}, "Tasting in fish sauce": {"test": "Tasting in fish sauce", "experimental": "(§1) The following formulations were prepared and tasted by trained panelists.\n(§2) Salt level pure product between 5-40%\n(§3) Salt level in application 0.3-1.0%\n(§4) Samples were prepared and evaluated by expert tasters. Tasters were asked to describe the samples focusing on authentic taste, mouthfeel, fullness, salivation, salty-ness, umami, sweetness, juiciness, richness, long lastingness and fattiness."}, "[1]": {"test": "Test on Baileys cream liqueur", "conditions": "1 ppm, 17% alcohol", "experimental": "Test on Baileys Cream Liqueur:\nIn Baileys cream liqueur (Market Product) containing 17% alcohol, carbohydrates 25% and 13% fat C18:2-gaba was added at 1 ppm.\nSamples were evaluated by expert tasters. Tasters were asked to describe the samples focusing on authentic taste, alcohol impact, mouthfeel, fullness, salivation, sweetness, bitterness, richness, long lastingness and fattiness.\nBase is Baileys cream liqueur\n(§5) Samples were evaluated by expert tasters. Tasters were asked to describe the samples focusing on authentic taste, mouthfeel, fullness, salty-ness, salivation, umami, sweetness, juiciness, richness, long lastingness and fattiness.\nBase: Baileys cream liqueur (containing 17% alcohol, carbohydrates 25% and 13% fat)"}, "[2]": {"test": "Test in peach flavoured drink", "conditions": "1 ppm; water, 8% sugar, 0.1% citric acid, peach flavour 0.05%", "experimental": "(§6) Samples were prepared and evaluated by expert tasters. Tasters were asked to describe the samples focusing on authentic taste, mouthfeel, fullness, salty-ness, salivation, umami, sweetness, juiciness, richness, long lastingness and fattiness.\nTest in Peach Flavoured Drink:\nBase is water, 8% sugar, 0.1% citric acid, and proprietary peach flavour at 0.05%\nas §5\nComparison in a Peach Drink\nBase is water, 8% sugar, 0.1% citric acid, proprietary peach flavour at 0.05%\nSamples were evaluated by expert tasters. Tasters were asked to describe the samples focusing on authentic taste, mouthfeel, fullness, salivation, salty-ness, umami, sweetness, juiciness, richness, long lastingness and fattiness."}, "[3]": {"test": "Test on organic acids in a beverage", "conditions": "1 ppm, water, 7% sucrose", "experimental": "14—Testing with Beverages Containing Organic Acids from 0.01% to 7%\nTest 18:2 Gaba on Organic Acids in a Beverage.\nIn a solution containing water, 7% sucrose by weight, and different organic acids, 18:2 gaba was added at 1 ppm. We observed taste effects on the acid perception upon addition of 18:2 gaba.\nBase is water, 7% Sucrose by weight, Tartaric acid at 0.121% by weight\nBase is water, 7% Sucrose by weight, Malic acid at 0.1081% by weight\nBase is water, 7% Sucrose by weight, Citric acid at 0.1% by weight\nBase is water, 7% Sucrose by weight, Fumaric acid at 0.0936% by weight"}, "Tasting in butter": {"test": "Tasting in butter", "conditions": "1 ppm in Blueband butter 82% fat 1.5% salt", "experimental": "as §1\nBlueband 82% fat 1.5% salt"}, "Tasting in soy sauce": {"test": "Tasting in soy sauce", "experimental": "as §1, §2, §3, §6\nTest on Kikkoman Soy Sauce Low Salt\nBase is Kikkoman soy sauce\nas §4"}, "[4]": {"test": "Tasting in low fat mayonnaise", "experimental": "as §1\nLow fat Mayonnaise (27% Fat, 9% carbohydrates (of which 5% sugar), 1.4% salt)\nas §6\nCalve 60% Reduced Fat Mayonnaise\nBase is Calve Mayonnaise 60% reduced fat (market Product)\nas §4\nLow fat Mayonnaise (27% Fat)"}, "Tasting in pilaf": {"test": "Tasting in pilaf", "conditions": "cooked rice with 10% of the butter flavoured at 1 ppm", "experimental": "as §1"}, "Test on Breezer Orange": {"test": "Test on Breezer Orange", "conditions": "0.5 ppm, 4% alcohol", "experimental": "Samples were evaluated by expert tasters. Tasters were asked to describe the samples focusing on authentic taste, alcohol impact, juiciness, mouthfeel, fullness, salivation, sweetness, bitterness, richness, long lastingness and fattiness."}, "[5]": {"test": "Tasting in vanilla milk 0.15% fat", "conditions": "2 ppm, 4% sucrose, Vaniline 10 ppm + vanilla extract 0.03%", "procedure,_shortened": "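Expert panel tasted samples in 0.15% fat milk sweetened with 4% sucrose and flavoured with vaniline at 10 ppm plus vanilla extract at 0.03%. Descriptors covered authentic taste, mouthfeel, fullness, saltiness, salivation, umami, sweetness, juiciness, richness, long-lastingness and fattiness.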"}, "[6]": {"test": "Tasting in low fat salad dressing", "conditions": "0.5 ppm in low fat salad dressing (13.6% fat)", "experimental": "as §1\nlow fat salad dressing (13.6% Fat, 8%, carbohydrates (of which 5.3% sugar))\nas §6\nCalve Salad Dressing Low Fat (13.6% Fat):\nBase is Calve salad dressing (market product)\nas §4\nLow fat salad dressing (13.6% Fat)"}, "[7]": {"test": "Tasting in mango still beverage, 4% clear mango juice", "conditions": "1 ppm; 4% clear mango juice (30% reduced juice)", "experimental": "Mango Flavoured Still Beverage Containing Different Levels of Juice,\nIn a Mango flavoured still beverage, sweetened with 8% sucrose and containing 0.1% citric acid and 1%, 4% and 6% clear mango juice flavoured with a proprietary Mango flavour @ 0.05%, C18:2-gaba and C18:2-Pro were added, as such (separate) and in combination.\nAll samples were evaluated by expert tasters. Tasters were asked to describe the samples focusing on authentic taste, juicy mouthfeel, enhancement, richness, juiciness, long lastingness, salivation, sweetness.\nIn a Mango flavoured still beverage, sweetened with 8% sucrose & containing 0.1% citric acid and 4% clear mango juice flavoured with Mango flavour @ 0.05%, C18:2-gaba and C18:2-Pro were added, as such (separate) and in combination.\nBase is water, 8% sucrose, 0.1% citric acid, 4% clear mango juice (30% reduced juice), flavoured with Mango flavor, dosed at 0.05%"}, "Test on menthol fondant": {"test": "Test on menthol fondant", "conditions": "2 ppm; fondant 65%, sugar syrup 34%, menthol flavour 1%", "experimental": "as §6\nTest on Menthol Fondant (1%1\nBase is Fondant 65%, sugar syrup 34% and a proprietary menthol flavour at 1%"}, "[8]": {"test": "Tasting in Activa strawberry yoghurt", "conditions": "2 ppm, 13.5% sugar, 3.2% fat", "source_text": "Activa Strawberry Yoghurt\nIn a Full fat, Activa strawberry flavoured yoghurt containing 13.5% sugar, 3.2% fat C18:2-gaba and C18:0-leu at 2 ppm"}}, "data": [{"smiles": "CCCCC/C=C\\C/C=C\\CCCCCCCC(=O)NCCCC(=O)O", "note": "[C18:2-gaba]", "values": [{"measurement": "tasting result", "setting": "Test in 3 in 1 coffee", "result": "very nice mouthfeel effect, creamy as if coffee creamer is added, more sweet"}, {"measurement": "tasting result", "setting": "Tasting in fish sauce; 0.5 ppm in 1% diluted fish sauce (0.27% salt)", "result": "stronger in umami, longer lasting and richer"}, {"measurement": "tasting result", "setting": "Tasting in fish sauce; 0.5 ppm in pure fish sauce (27% salt)", "result": "strong in body and mouthfeel, more salty, richer with more rounded fish notes"}, {"measurement": "tasting result", "setting": "[1]", "result": "strongly enhanced alcohol effect, more cocoa, very creamy and long lasting aftertaste"}, {"measurement": "tasting result", "setting": "[2]", "result": "fruity peach, long lasting, juicy and fatty skin like very authentic"}, {"measurement": "tasting result", "setting": "[3]; citric acid 0.1% by weight", "result": "decreased sharp acidic perception, full body mouth feel, higher higher mouthwatering, and an impression of the juicy notes of citrus fruit (orange, lemon)"}, {"measurement": "tasting result", "setting": "[3]; fumaric acid 0.0936% by weight", "result": "decreased sharp acidic perception, full body mouthfeel effects, higher sweet effects, and an impression of the full notes characteristic of sweet red & vanillic flavor types (vanilla, chocolate, raspberry, cherry, especially benzaldhyde)"}, {"measurement": "tasting result", "setting": "[3]; malic acid 0.1081% by weight", "result": "decreased sharp acidic perception, give fuller body, mouthfeel, higher mouthwatering, and an impression of the flesh and skin notes of fruit (apple)"}, {"measurement": "tasting result", "setting": "[3]; tartaric acid 0.121% by weight", "result": "decreased sharp acidic perception, full body mouthfeel, higher mouthwatering, more immediate (upfront hit), and an impression of the flesh of fruit (grape, apple, banana, pear-like)"}, {"measurement": "tasting result", "setting": "Tasting in butter", "result": "more authentic butter taste, with more mouthfeel"}, {"measurement": "tasting result", "setting": "Tasting in soy sauce; 0.5 ppm in 1% diluted salt reduced kikoman soy sauce (9% salt)", "result": "stronger, more umami, long lasting, richer"}, {"measurement": "tasting result", "setting": "Tasting in soy sauce; 0.5 ppm in Kikkoman soy sauce low salt", "result": "much more salty, sweet and long lasting"}, {"measurement": "tasting result", "setting": "Tasting in soy sauce; 0.5 ppm in pure salt reduced kikoman soy sauce (9% salt)", "result": "strong in body and mouthfeel, and more salty"}, {"measurement": "tasting result", "setting": "[4]; 0.5 ppm in Calve Mayonnaise 60% reduced fat", "result": "full, rich, creamy, more egg yolk taste"}, {"measurement": "tasting result", "setting": "[4]; 0.5 ppm in low fat mayonnaise (27% fat)", "result": "creamy, thick mouthfeel with a full fat impression"}, {"measurement": "tasting result", "setting": "Tasting in pilaf", "result": "more mouthfeel, with a lingering creamy authentic butter taste"}, {"measurement": "tasting result", "setting": "Test on Breezer Orange", "result": "more alcoholic, sweeter, more juicy orange, less soapy"}, {"measurement": "tasting result", "setting": "[5]", "result": "fatty, long lasting authentic vanilla, vanilla bean taste is enhanced"}, {"measurement": "tasting result", "setting": "[6]", "result": "much fuller, creamy, rich, less acidic"}, {"measurement": "tasting result", "setting": "[6]; listed as C18:2 gaba", "result": "better mouthfeel that was impressively creamy"}, {"measurement": "tasting result", "setting": "[7]", "result": "fatty skin-like, very juicy, authentic mango, long lasting mango taste, more mouthfeel than the full juice product"}, {"measurement": "tasting result", "setting": "Test on menthol fondant", "result": "increased menthol impact, stronger cooling more sweet, long lasting, fresh"}, {"measurement": "tasting result", "setting": "[8]", "result": "very creamy, full and fresh strawberry"}]}]}
